# Reference: BindingDB's records for doi:10.1021/bi701378g (Pfizer, 2007)
# Legend:
# Details in all cases: pH 7.4; 30 °C
# [1] = target: T1, Fatty-acid amide hydrolase 1 (Homo sapiens, UniProt O00519); experiment: FAAH Inhibition Assay (5 min Preincubation)
# T1 sequence (O00519 whole entry): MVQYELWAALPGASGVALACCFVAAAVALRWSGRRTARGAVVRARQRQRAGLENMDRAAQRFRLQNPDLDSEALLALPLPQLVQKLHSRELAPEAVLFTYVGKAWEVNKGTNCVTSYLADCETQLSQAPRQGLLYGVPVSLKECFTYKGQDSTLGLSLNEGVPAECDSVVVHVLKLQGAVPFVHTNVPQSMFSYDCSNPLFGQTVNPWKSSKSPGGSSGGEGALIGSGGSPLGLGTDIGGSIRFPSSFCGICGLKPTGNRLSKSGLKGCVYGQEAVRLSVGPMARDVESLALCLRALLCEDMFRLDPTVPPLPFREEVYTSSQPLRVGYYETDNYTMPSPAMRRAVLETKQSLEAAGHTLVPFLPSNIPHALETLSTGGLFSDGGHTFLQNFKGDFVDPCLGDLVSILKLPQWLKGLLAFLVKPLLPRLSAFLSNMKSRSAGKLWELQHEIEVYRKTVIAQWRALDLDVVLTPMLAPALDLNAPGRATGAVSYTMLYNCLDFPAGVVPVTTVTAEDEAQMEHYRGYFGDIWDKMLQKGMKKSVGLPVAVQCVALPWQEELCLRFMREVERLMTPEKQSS
# Method: (§1) FAAH activity was measured by following the production of ammonia generated from the hydrolysis of oleamide by FAAH. GDH catalyzes the condensation of ammonia and alpha-ketoglutarate to glutamate with a concomitant conversion of NADH to nicotinamide adenine dinucleotide, oxidized form (NAD+), which is spectrophotometrically measured at 340 nm. Test compounds were preincubated with FAAH at room temperature for 5 min. The reaction was initiated with the addition of substrate oleamide. The absorbance at 340 nm was collected over a period of 30 min with reading taken in 10-s intervals using a spectrophotometer.
# [2] = target: T1, Fatty-acid amide hydrolase 1; experiment: FAAH Inhibition Assay (15 min Preincubation)
# Method: as §1, with “15” for “5”
# [3] = target: T1, Fatty-acid amide hydrolase 1; experiment: FAAH Inhibition Assay (30 min Preincubation)
# Method: as §1, with “30” for “5”
# [4] = target: T1, Fatty-acid amide hydrolase 1; experiment: FAAH Inhibition Assay (60 min Preincubation)
# Method: as §1, with “60” for “5”
structure (smiles),measurement,setting,value
O=C(Nc1ccccc1)N1CCN(Cc2ccc3ccccc3n2)CC1 [N-phenyl-4-(quinolin-2-ylmethyl)piperazine-1-carboxamide],IC50,[1],991 nM
same,IC50,[2],687 nM
same,IC50,[3],473 nM
same,IC50,[4],33 nM
